The values that follow come from patent US10722501B2 (BAYER AKTIENGESELLSCHAFT, priority 2016, dated 2020).

In the experiment the target is T1, recombinant full-length human prolyl endopeptidase (PREP) (Homo sapiens, UniProt P48147).
T1 construct: To recombinant full-length human prolyl endopeptidase (PREP, R&D-Systems, 4308-SE); purchased R&D-Systems 4308-SE
T1 sequence (P48147 1-710): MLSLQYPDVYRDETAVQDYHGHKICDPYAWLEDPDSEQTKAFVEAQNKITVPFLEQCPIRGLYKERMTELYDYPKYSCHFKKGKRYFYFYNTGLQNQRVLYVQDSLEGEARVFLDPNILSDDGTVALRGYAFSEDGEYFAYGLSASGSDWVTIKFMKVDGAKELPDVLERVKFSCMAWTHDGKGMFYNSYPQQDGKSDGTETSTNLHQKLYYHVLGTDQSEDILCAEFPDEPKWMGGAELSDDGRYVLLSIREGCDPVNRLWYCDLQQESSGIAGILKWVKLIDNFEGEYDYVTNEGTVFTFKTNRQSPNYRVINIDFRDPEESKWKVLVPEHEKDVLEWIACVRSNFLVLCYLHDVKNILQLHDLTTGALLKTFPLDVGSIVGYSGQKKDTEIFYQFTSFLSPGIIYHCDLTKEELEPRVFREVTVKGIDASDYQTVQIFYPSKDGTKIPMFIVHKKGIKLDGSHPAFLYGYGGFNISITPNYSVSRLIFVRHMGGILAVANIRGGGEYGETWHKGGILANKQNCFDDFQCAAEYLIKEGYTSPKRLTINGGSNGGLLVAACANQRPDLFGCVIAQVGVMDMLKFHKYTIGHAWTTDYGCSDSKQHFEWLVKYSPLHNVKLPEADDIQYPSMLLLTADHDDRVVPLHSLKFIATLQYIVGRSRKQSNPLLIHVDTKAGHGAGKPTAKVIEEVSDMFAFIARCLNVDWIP
As to the kind of experiment: Biochemical human prolyl endopeptidase (PREP) assay with fluorescently labelled substrate. As to conditions: substrate Z-Gly-Pro-AMC 50 μM, 32° C., 60 min; some as mean values from multiple independent determinations. An outline of the steps: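 0.4 nM (final, example) recombinant PREP in pH 7.5 Tris buffer with EDTA, GSH, BSA and Brij-35; compounds at 1 nM to 30 μM. Reaction started with 50 μM Z-Gly-Pro-AMC and followed by fluorescence (ex 360/em 465 nm) at 32° C for 60 min. IC50 interpolated from percent activity based on initial slopes.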
Take `Cc1ccc(Cn2nc3n(c2=O)C(C(=O)N2CC(F)(F)C2)CCC3)cc1` (racemic) [Example 114, (5RS)-5-[(3,3-Difluoroazetidin-1-yl)carbonyl]-2-(4-methylbenzyl)-5,6,7,8-tetrahydro[1,2,4]triazolo[4,3-a]pyridin-3(2H)-one]: the IC50 (usually the concentration that gives 50% inhibition) stood at 1.95 nM.

As to `Cc1ccc(Cn2nc3n(c2=O)C(C(=O)N2C[C@@H]4[C@H](C2)C4(F)F)CCC3)cc1` (mixture of isomers) [Example 117, (5RS)-5-{[(cis)-6,6-Difluoro-3-azabicyclo[3.1.0]hex-3-yl]carbonyl}-2-(4-methylbenzyl)-5,6,7,8-tetrahydro[1,2,4]triazolo[4,3-a]pyridin-3(2H)-one], the IC50 was 3.15 nM. As to `Cc1ccc(Cn2nc3n(c2=O)C(C(=O)N2CCC(=O)C2)CCC3)cc1` (racemic) [Example 118, (5RS)-2-(4-Methylbenzyl)-5-[(3-oxopyrrolidin-1-yl)carbonyl]-5,6,7,8-tetrahydro[1,2,4]triazolo[4,3-a]pyridin-3(2H)-one], the IC50 stood at 5.6 nM.

In the case of `Cc1ccc(Cn2nc3n(c2=O)C(C(=O)N2CC(O)C2)CCC3)cc1` (racemic) [Example 120, (5RS)-5-[(3-Hydroxyazetidin-1-yl)carbonyl]-2-(4-methylbenzyl)-5,6,7,8-tetrahydro[1,2,4]triazolo[4,3-a]pyridin-3(2H)-one], the IC50 is 9.6 nM.

On to `Cc1ccc(Cn2nc3n(c2=O)C(C(=O)N2CC(OC(F)F)C2)CCC3)cc1` (racemic) [Example 123, (5RS)-5-{[3-(Difluoromethoxy)azetidin-1-yl]carbonyl}-2-(4-methylbenzyl)-5,6,7,8-tetrahydro[1,2,4]triazolo[4,3-a]pyridin-3(2H)-one], for which the IC50 was found to be 12 nM. Consider `Cc1ccc(Cn2nc3n(c2=O)C(C(=O)N2CC(C(F)(F)F)C2)CCC3)cc1` (racemic) [Example 124, (5RS)-2-(4-Methylbenzyl)-5-{[3-(trifluoromethyl)azetidin-1-yl]carbonyl}-5,6,7,8-tetrahydro[1,2,4]triazolo[4,3-a]pyridin-3(2H)-one], for which the IC50 came out at 14 nM. With `COC1CN(C(=O)C2CCCc3nn(Cc4ccc(C)cc4)c(=O)n32)C1` (racemic) [Example 125, (5RS)-5-[(3-Methoxyazetidin-1-yl)carbonyl]-2-(4-methylbenzyl)-5,6,7,8-tetrahydro[1,2,4]triazolo[4,3-a]pyridin-3(2H)-one] the figure was 25 nM; with `Cc1ccc(Cn2nc3n(c2=O)C(C(=O)N2C[C@H]4C[C@H]4C2)CCC3)cc1` (mixture of isomers) [Example 126, (5RS)-5-[(cis)-3-Azabicyclo[3.1.0]hex-3-ylcarbonyl]-2-(4-methylbenzyl)-5,6,7,8-tetrahydro[1,2,4]triazolo[4,3-a]pyridin-3(2H)-one], 28.4 nM. In the case of `Cc1ccc(Cn2nc3n(c2=O)C(C(=O)N2CC(O)(C(F)(F)F)C2)CCC3)cc1` (racemic) [Example 131, (5RS)-{[3-Hydroxy-3-(trifluoromethyl)azetidin-1-yl]carbonyl}-2-(4-methylbenzyl)-5,6,7,8-tetrahydro[1,2,4]triazolo[4,3-a]pyridin-3(2H)-one], the IC50 is 107 nM. Take `Cc1ccc(Cn2nc3n(c2=O)C(C(=O)N2CC(=O)C2)CCC3)cc1` (racemic) [Example 133, (5RS)-2-(4-Methylbenzyl)-5-[(3-oxoazetidin-1-yl)carbonyl]-5,6,7,8-tetrahydro[1,2,4]triazolo[4,3-a]pyridin-3(2H)-one]: the IC50 is 145 nM. As to `CC1Cc2nn(Cc3ccc(C(F)(F)F)nc3)c(=O)n2C(C(=O)N2CC(O)C2)C1` (racemic) [Example 134, (5RS,7RS)-5-[(3-Hydroxyazetidin-1-yl)carbonyl]-7-methyl-2-{[6-(trifluoromethyl)pyridin-3-yl]methyl}-5,6,7,8-tetrahydro[1,2,4]triazolo[4,3-a]pyridin-3(2H)-one], the IC50 was 79 nM.

For the compound `CC1Cc2nn(Cc3ccc(C(F)(F)F)nc3)c(=O)n2C(C(=O)N2CC[C@H](F)C2)C1` (mixture of isomers) [Example 136, (5RS,7RS)-5-{[(3S)-3-Fluoropyrrolidin-1-yl]carbonyl}-7-methyl-2-{[6-(trifluoromethyl)pyridin-3-yl]methyl}-5,6,7,8-tetrahydro[1,2,4]triazolo[4,3-a]pyridin-3(2H)-one], the IC50 stood at 1.17 nM. `Cc1ccc(Cn2nc3n(c2=O)[C@H](C(=O)N2CC[S+]([O-])C2)CCC3)cc1` (mixture of isomers) [Example 141, (5S)-2-(4-Methylbenzyl)-5-{[(1 RS)-1-oxido-1,3-thiazolidin-3-yl]carbonyl}-5,6,7,8-tetrahydro[1,2,4]triazolo[4,3-a]pyridin-3(2H)-one]: the IC50 is 0.83 nM. Next, `Cc1ccc(Cn2nc3n(c2=O)C(C(=O)N2CCC4CC42)CCC3)cc1` (racemic) [Example 144, (5S)-5-[(cis)-2-Azabicyclo[3.1.0]hex-2-ylcarbonyl]-2-(4-methylbenzyl)-5,6,7,8-tetrahydro[1,2,4]triazolo[4,3-a]pyridin-3(2H)-one]: 1.7 nM; `Cc1ccc(Cn2nc3n(c2=O)[C@H](C(=O)N2CCC(C)(F)C2)CCC3)cc1` (mixture of isomers) [Example 151, (5S)-5-{[(3RS)-3-Fluoro-3-methylpyrrolidin-1-yl]carbonyl}-2-(4-methylbenzyl)-5,6,7,8-tetrahydro[1,2,4]triazolo[4,3-a]pyridin-3(2H)-one]: 0.26 nM; `Cc1ccc(Cn2nc3n(c2=O)[C@H](C(=O)N2CCC(O)(C(F)(F)F)C2)CCC3)cc1` (mixture of isomers) [Example 152, (5S)-5-{[(3RS)-3-Hydroxy-3-(trifluoromethyl)pyrrolidin-1-yl]carbonyl}-2-(4-methylbenzyl)-5,6,7,8-tetrahydro[1,2,4]triazolo[4,3-a]pyridin-3(2H)-one]: 38 nM. On to `O=C(C1CCCc2nn(Cc3ccc(OCC(F)(F)F)nc3)c(=O)n21)N1CCCC1` (racemic) [Example 153, (5RS)-5-(Pyrrolidin-1-ylcarbonyl)-2-{[6-(2,2,2-trifluoroethoxy)pyridin-3-yl]methyl}-5,6,7,8-tetrahydro[1,2,4]triazolo[4,3-a]pyridin-3(2H)-one], for which the IC50 came to 36 nM. Next, `O=C(O)c1ccc(Cn2nc3n(c2=O)C(C(=O)N2CCCC2)CCC3)cc1` (racemic) [Example 154, 4-{[(5RS)-3-Oxo-5-(pyrrolidin-1-ylcarbonyl)-5,6,7,8-tetrahydro[1,2,4]triazolo[4,3-a]pyridin-2(3H)-yl]methyl}benzoic acid]: 790 nM; `CNC(=O)c1ccc(Cn2nc3n(c2=O)C(C(=O)N2CCCC2)CCC3)cc1` (racemic) [Example 155, N-Methyl-4-{[(5RS)-3-oxo-5-(pyrrolidin-1-ylcarbonyl)-5,6,7,8-tetrahydro[1,2,4]triazolo[4,3-a]pyridin-2(3H)-yl]methyl}benzamide]: 210 nM; `CN(C)C(=O)c1ccc(Cn2nc3n(c2=O)C(C(=O)N2CCCC2)CCC3)cc1` (racemic) [Example 156, N,N-Dimethyl-4-{[(5RS)-3-oxo-5-(pyrrolidin-1-ylcarbonyl)-5,6,7,8-tetrahydro[1,2,4]triazolo[4,3-a]pyridin-2(3H)-yl]methyl}benzamide]: 69 nM.

`Cc1ccc(Cn2nc3n(c2=O)C(C(=O)N2CC=CCC2)CCC3)cc1` (racemic) [Example 158, (5RS)-5-(3,6-Dihydropyridin-1 (2H)-ylcarbonyl)-2-(4-methylbenzyl)-5,6,7,8-tetrahydro[1,2,4]triazolo[4,3-a]pyridin-3(2H)-one]: the IC50 worked out at 8.9 nM. Take `Cc1ccc(Cn2nc3n(c2=O)C(C(=O)N2CCOCC2)CCC3)cc1` (racemic) [Example 159, (5RS)-2-(4-Methylbenzyl)-5-(morpholin-4-ylcarbonyl)-5,6,7,8-tetrahydro[1,2,4]triazolo[4,3-a]pyridin-3(2H)-one]: the IC50 was 16 nM.

In the case of `Cc1ccc(Cn2nc3n(c2=O)C(C(=O)N2CCC(C)CC2)CCC3)cc1` (racemic) [Example 160, (5RS)-2-(4-Methylbenzyl)-5-[(4-methylpiperidin-1-yl)carbonyl]-5,6,7,8-tetrahydro[1,2,4]triazolo[4,3-a]pyridin-3(2H)-one], the 50% inhibitory concentration (IC50) amounted to 32 nM. Next, `Cc1ccc(Cn2nc3n(c2=O)C(C(=O)N2CCCCC2)CCC3)cc1` (racemic) [Example 161, (5RS)-2-(4-Methylbenzyl)-5-(piperidin-1-ylcarbonyl)-5,6,7,8-tetrahydro[1,2,4]triazolo[4,3-a]pyridin-3(2H)-one]: 37 nM; `Cc1ccc(Cn2nc3n(c2=O)C(C(=O)N2CCCC2C)CCC3)cc1` (racemic) [Example 162, (5RS)-2-(4-Methylbenzyl)-5-[2(RS)-(2-methylpyrrolidin-1-yl)carbonyl]-5,6,7,8-tetrahydro[1,2,4]triazolo[4,3-a]pyridin-3(2H)-one]: 130 nM.
